Experimental data reported in patent US8637511B2, “Aminopyrimidines useful as kinase inhibitors” (Vertex Pharmaceuticals Incorporated, priority 2005, dated 2014).
Where “and” joins values, the source holds several entries; their conditions need not be identical. Identical values can stand only once. Like-named read-outs stand apart in the source and are kept apart here.

Assays:
Aurora-2 (Aurora A) = target: T1, Aurora-2 (Aurora A) (Homo sapiens, UniProt O14965); test: Aurora-2 (Aurora A) inhibition assay, coupled enzyme; assay type: biochemical
T1 sequence (O14965 1-403): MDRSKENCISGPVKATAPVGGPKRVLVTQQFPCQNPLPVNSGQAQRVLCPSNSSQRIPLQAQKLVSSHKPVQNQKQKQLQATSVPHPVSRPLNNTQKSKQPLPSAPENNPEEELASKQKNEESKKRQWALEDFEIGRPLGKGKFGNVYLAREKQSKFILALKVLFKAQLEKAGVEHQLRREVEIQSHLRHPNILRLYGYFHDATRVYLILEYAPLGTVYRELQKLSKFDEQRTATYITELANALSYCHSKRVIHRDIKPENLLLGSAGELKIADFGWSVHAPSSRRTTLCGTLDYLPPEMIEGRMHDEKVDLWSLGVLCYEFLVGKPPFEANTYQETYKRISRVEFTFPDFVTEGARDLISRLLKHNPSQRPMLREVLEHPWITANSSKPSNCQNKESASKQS
Method in brief: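 These rates came from NADH consumption coupled through pyruvate kinase and lactate dehydrogenase (100 mM Hepes pH 7.5, 10 mM MgCl2, 300 μM NADH). Aurora-2 was present at 40 nM, and the reaction ran at 30 °C after a 10 min preincubation.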

JAK3 = target: T2, JAK3 (Homo sapiens, UniProt P52333); test: biochemical
T2 sequence (P52333 1-1124): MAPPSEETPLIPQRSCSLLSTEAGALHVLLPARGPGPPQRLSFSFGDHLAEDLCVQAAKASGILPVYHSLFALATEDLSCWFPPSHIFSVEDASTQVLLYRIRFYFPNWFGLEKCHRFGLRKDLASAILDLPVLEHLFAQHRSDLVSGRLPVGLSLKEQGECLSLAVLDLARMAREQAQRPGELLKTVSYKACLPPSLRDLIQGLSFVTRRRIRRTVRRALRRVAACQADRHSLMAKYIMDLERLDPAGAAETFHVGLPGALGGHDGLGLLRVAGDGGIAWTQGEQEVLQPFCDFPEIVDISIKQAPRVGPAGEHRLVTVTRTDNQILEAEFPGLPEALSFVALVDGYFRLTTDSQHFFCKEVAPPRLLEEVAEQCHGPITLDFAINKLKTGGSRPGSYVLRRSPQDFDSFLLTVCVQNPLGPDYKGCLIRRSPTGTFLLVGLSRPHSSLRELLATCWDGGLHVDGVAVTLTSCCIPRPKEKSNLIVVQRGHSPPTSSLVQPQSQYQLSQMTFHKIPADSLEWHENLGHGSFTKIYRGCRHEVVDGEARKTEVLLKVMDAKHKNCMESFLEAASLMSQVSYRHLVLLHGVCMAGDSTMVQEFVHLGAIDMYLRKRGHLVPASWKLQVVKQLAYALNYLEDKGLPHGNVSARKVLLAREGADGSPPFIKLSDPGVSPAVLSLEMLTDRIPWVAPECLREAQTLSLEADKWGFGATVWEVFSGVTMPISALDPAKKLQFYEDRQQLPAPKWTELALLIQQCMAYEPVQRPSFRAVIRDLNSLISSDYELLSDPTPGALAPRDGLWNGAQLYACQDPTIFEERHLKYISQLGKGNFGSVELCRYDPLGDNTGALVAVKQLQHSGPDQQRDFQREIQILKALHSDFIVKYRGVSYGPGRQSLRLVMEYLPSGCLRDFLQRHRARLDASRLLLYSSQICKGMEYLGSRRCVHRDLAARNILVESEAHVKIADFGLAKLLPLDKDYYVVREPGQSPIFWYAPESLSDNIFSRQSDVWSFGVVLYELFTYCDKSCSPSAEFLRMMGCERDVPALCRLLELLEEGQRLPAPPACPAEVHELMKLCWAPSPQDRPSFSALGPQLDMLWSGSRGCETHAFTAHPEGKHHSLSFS
Description: Reactions were carried out in a kinase buffer containing 100 mM HEPES (pH 7.4), 1 mM DTT, 10 mM MgCl2, 25 mM NaCl, and 0.01% BSA. Substrate concentrations in the assay were 5 μM ATP (200 uCi/μmole ATP) and 1 μM poly(Glu)4Tyr. Reactions were carried out at 25° C. and 1 nM JAK3.
To each well of a 96 well polycarbonate plate was added 1.5 μl of a candidate JAK3 inhibitor along with 50 μl of kinase buffer containing 2 μM poly(Glu)4Tyr and 10 μM ATP. This was then mixed and 50 μl of kinase buffer containing 2 nM JAK3 enzyme was added to start the reaction. After 20 minutes at room temperature (25 C), the reaction was stopped with 50 μl of 20% trichloroacetic acid (TCA) that also contained 0.4 mM ATP. The entire contents of each well were then transferred to a 96 well glass fiber filter plate using a TomTek Cell Harvester. After washing, 60 μl of scintillation fluid was added and ^33P incorporation detected on a Perkin Elmer TopCount.

Aurora-1 (Aurora B) = Aurora-1 (Aurora B) (Homo sapiens, UniProt Q96GD4); test: Aurora-1 (Aurora B) inhibition assay (radiometric); assay type: biochemical; conditions: read-out: Aurora B kinase Ki value
Sequence of Aurora-1 (Aurora B) (Q96GD4 whole entry): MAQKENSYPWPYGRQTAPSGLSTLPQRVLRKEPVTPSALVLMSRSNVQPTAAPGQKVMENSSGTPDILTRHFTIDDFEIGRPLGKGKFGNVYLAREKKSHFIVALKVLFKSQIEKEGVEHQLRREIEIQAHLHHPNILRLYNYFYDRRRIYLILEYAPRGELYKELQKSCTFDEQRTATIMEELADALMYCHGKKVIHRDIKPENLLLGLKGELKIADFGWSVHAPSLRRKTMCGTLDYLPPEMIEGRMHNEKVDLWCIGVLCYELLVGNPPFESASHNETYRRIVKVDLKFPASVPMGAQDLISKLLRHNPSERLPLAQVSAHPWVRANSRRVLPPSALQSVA
Method in brief: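 Ki values come from non-linear regression of background-corrected initial-rate data. The enzyme was preincubated 10 min at 25° C with compound, then reacted 3 h with 800 μM (final) [γ-^33P]-ATP in HEPES pH 7.5/MgCl2/BSA/glycerol buffer. The reaction was stopped with phosphoric acid and substrate-bound ^33P counted on phosphocellulose.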

Colo205 cells = test: Analysis of cell proliferation and viability; assay type: cell-based; conditions: Homo sapiens, COLO 205, Colo205 cells, read-out: IC50 value
[1] = read-out: Aurora A kinase Ki value

| Structure (SMILES) | Ki (Aurora-2 (Aurora A); [1]) [nM] | Ki (JAK3) [nM] | Ki (Aurora-1 (Aurora B)) | IC50 (Colo205 cells; incubated for 72 hours) [nM] | Ki (JAK3; read-out: JAK3 Ki value) [nM] | IC50 (Colo205 cells; incubated for 96 hours) [nM] | Ki (Aurora-2 (Aurora A)) [nM] |
| --- | --- | --- | --- | --- | --- | --- | --- |
| COc1ccc(C(=O)Nc2ccc(Sc3nc(Nc4cc(C)n[nH]4)cc(N4CCC4)n3)cc2)cc1 [Compound 117] | 1 to 5 | 10 to 500 | 10 to 50 nM | > 200 |  |  |  |
| Cc1cc(Nc2cc(N3CCC3)nc(Sc3ccc(NC(=O)CCC(F)(F)F)cc3)n2)[nH]n1 [Compound 121] | 1 to 5 | 10 to 500 | 10 to 50 nM and < 25 nM | 30 to 200 |  |  |  |
| Cc1cc(Nc2cc(N3CCC3)nc(Sc3ccc(NC(=O)c4ccccc4N(C)C)cc3)n2)[nH]n1 [Compound 124] | 5 to 200 | 500 to 2000 | 50 to 2000 nM | > 200 |  |  |  |
| COC1CN(c2cc(Nc3cc(C)n[nH]3)nc(Sc3ccc(NC(=O)c4ccccc4C(F)(F)F)cc3)n2)C1 [Compound 126] | ≤ 1 |  | ≤ 10 nM | 30 to 200 | 10 to 500 |  |  |
| Cc1cc(Nc2cc(N3CCC3)nc(Sc3ccc(NC(=O)C(C)CC(F)(F)F)cc3)n2)[nH]n1 (stereo not shown) [Compound 127] | 1 to 5 | 500 to 2000 | 10 to 50 nM and < 25 nM | 30 to 200 |  |  |  |
| Cc1cc(Nc2cc(N3CC(O)(C4CC4)C3)nc(Sc3ccc4ccccc4c3)n2)n[nH]1 [Compound 131] | ≤ 1 | ≤ 10 | 50 to 2000 nM | > 200 |  |  |  |
| Cc1cc(Nc2cc(N3CCC3)nc(Oc3ccc(NC(=O)c4ccccc4C(F)(F)F)cc3)n2)[nH]n1 [Compound 134] | 1 to 5 | 10 to 500 | 10 to 50 nM and < 25 nM | 30 to 200 |  |  |  |
| Cc1cc(Nc2cc(N3CCC3)nc(Sc3ccc(NC(=O)c4ccc(CN(C)C)cc4)cc3)n2)[nH]n1 [Compound 137] | 5 to 200 |  | 50 to 2000 nM |  | 500 to 2000 | 50 to 1000 |  |
| Cc1ccc(C(=O)Nc2ccc(Sc3nc(Nc4cc(C)n[nH]4)cc(N4CCC4)n3)cc2)cn1 [Compound 145] | 5 to 200 | 10 to 500 | 50 to 2000 nM | > 200 |  |  |  |
| Cc1cc(Nc2cc(N3CCC3)nc(Sc3ccc(NC(=O)c4ccncc4C(F)(F)F)cc3)n2)[nH]n1 [Compound 146] | ≤ 1 | 10 to 500 | ≤ 10 nM | ≤ 30 |  |  |  |
| O=C(CC(F)(F)F)Nc1ccc(Sc2nc(Nc3cc[nH]n3)cc(N3CC(F)(C4CC4)C3)n2)cc1 [Compound 148] | 1 to 5 | 10 to 500 | 50 to 2000 nM | > 200 |  |  |  |
| Cc1cc(Nc2cc(N3CCC3)nc(Sc3ccc(NC(=O)c4cc(C)nc(Cl)c4)cc3)n2)[nH]n1 [Compound 149] | 1 to 5 | 10 to 500 | 10 to 50 nM | > 200 |  |  |  |
| Cc1cc(Nc2cc(N3CCC3)nc(Sc3ccc(NS(C)(=O)=O)cc3)n2)[nH]n1 [Compound 150] | 5 to 200 | ≤ 10 | 50 to 2000 nM | > 200 |  |  |  |
| Cc1cc(Nc2cc(N3CCC3)nc(Sc3ccc(NC(=O)C(F)(F)F)cc3)n2)[nH]n1 [Compound 158] | 1 to 5 |  | ≤ 10 nM | > 200 | ≤ 10 |  |  |
| Cc1cc(Nc2cc(N3CC(N4CCCC4)C3)nc(Sc3ccc4ncccc4c3)n2)n[nH]1 [Compound 159] | 1 to 5 | ≤ 10 | ≤ 10 nM | ≤ 30 |  |  |  |
| Cc1cc(Nc2cc(N3CC(N4CC[C@H](F)C4)C3)nc(Sc3ccc4ncccc4c3)n2)n[nH]1 [Compound 160] |  |  | ≤ 10 nM | ≤ 30 | ≤ 10 |  | ≤ 1 |
| Cc1cc(Nc2cc(N3CCC3)nc(Sc3ccc(NC(=O)c4ccc(Cl)cc4Cl)cc3)n2)n[nH]1 [Compound 162] |  | 10 to 500 | 10 to 50 nM and < 25 nM |  |  | 50 to 1000 | ≤ 1 |
| Cc1cc(Nc2cc(N3CCC3)nc(Sc3ccc(NC(=O)c4nccn4C)cc3)n2)n[nH]1 [Compound 166] | 5 to 200 |  | 50 to 2000 nM |  | 10 to 500 | > 1000 |  |
| Cc1cc(Nc2cc(N3CCC3)nc(Sc3ccc(NC(=O)c4ocnc4C)cc3)n2)n[nH]1 [Compound 167] | 5 to 200 | 10 to 500 | 50 to 2000 nM |  |  | > 1000 |  |
